Test results as given in patent EP4389117A1, “PROGESTERONE FORMULATION” (Besins Healthcare Distribution FZ-LLC, priority 2022, dated 2024).
Read-outs that look alike come from different tables or passages of the source.

Columns and labels:
[1] = Particle size distribution (PSD) measurement by laser light diffractometry, Malvern Mastersizer 2000; type: physicochemical; settings: starting powder before wet-medium-milling
Procedure: In this document, any particle size characteristic of the wet-media-milled progesterone particles is determined using laser light diffractometry and is based on a volume weighted particle size distribution, unless specifically indicated otherwise. […] As will be understood by those skilled in the art, the term "Dv50" as used herein refers to the point in the size distribution, up to and including which, 50% of the total volume of material in the sample is 'contained'. […] Particle size distribution ('PSD') characteristics are determined using a Malvern® Mastersizer 2000 apparatus equipped with a Hydro 2000 SM wet sample dispersion unit, operated with the settings summarized in table 1. Table 1 - PSD measurement settings [table]

[2] = single 200 mg oral dose, cited from earlier work

CC(=O)[C@H]1CC[C@H]2[C@@H]3CCC4=CC(=O)CC[C@]4(C)[C@H]3CC[C@]12C [progesterone, pregn-4-ene-3,20-dione]
Dv10 [1]: 4.7
Dv50 [1]: 38.4
Dv90 [1]: 74.6
peak levels of progesterone compared to plain milled progesterone ([2]; as a consequence of micronization): 1.4 fold
peak levels of progesterone compared to plain milled progesterone ([2]; as a consequence of the suspension in oil): 1.2 fold
peak levels of progesterone compared to plain milled progesterone ([2]; combination of micronization and the suspension in oil): 3.2 fold
